For orientation: IC50 means the midpoint of a concentration-inhibition curve.

The target in this assay is human factor D (Homo sapiens (Human), UniProt P00746). Nature of the assay: biochemical. It is filed as biochemical. Particulars: Factor D inhibition data using Method 1; recombinant human factor D 10 nM, substrate Z-Lys-thiobenzyl, fluorescence; read-out: IC50. An outline of the steps: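 E. coli-expressed recombinant human factor D (10 nM) was preincubated with compound for 1 h at room temperature in 0.1 M Hepes pH 7.5, 1 mM MgCl2, 1 M NaCl, 0.05% CHAPS. Fluorescence (ex 485/em 535 nm) was read after adding Z-Lys-thiobenzyl (200 μM) and 2,4-dinitrobenzenesulfonyl-fluoresceine (25 μM); IC50 came from percent inhibition versus concentration.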
Chain of human factor D (P00746 26-253): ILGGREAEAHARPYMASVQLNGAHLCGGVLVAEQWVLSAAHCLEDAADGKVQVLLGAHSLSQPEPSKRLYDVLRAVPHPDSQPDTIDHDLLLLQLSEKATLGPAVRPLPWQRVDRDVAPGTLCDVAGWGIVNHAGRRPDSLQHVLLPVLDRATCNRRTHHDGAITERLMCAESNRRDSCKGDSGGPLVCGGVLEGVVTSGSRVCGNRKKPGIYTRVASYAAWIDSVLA
For `CC(=O)c1nn(CC(=O)N2[C@@H]3C[C@@H]3C[C@H]2C(=O)NC[C@H]2CC2(Cl)Cl)c2ccc(OCc3nccc(C)n3)cc12` [Example 56, (1R,3S,5R)-2-{2-[3-Acetyl-5-(4-methyl-pyrimidin-2-ylmethoxy)-indazol-1-yl]-acetyl}-2-aza-bicyclo[3.1.0]hexane-3-carboxylic acid ((R)-2,2-dichloro-cyclopropylmethyl)-amide], the IC50 is 8 nM. Then `C[C@@H](NC(=O)[C@@H]1C[C@@]2(CO)C[C@H]2N1C(=O)Cn1nc(C(N)=O)c2ccccc21)[C@H]1CC1(Cl)Cl` [Example 57, 1-(2-{(1R,3S,5S)-3-[(R)-1-((R)-2,2-Dichloro-cyclopropyl)-ethylcarbamoyl]-5-hydroxymethyl-2-aza-bicyclo[3.1.0]hex-2-yl}-2-oxo-ethyl)-1H-indazole-3-carboxylic acid amide], with 17 nM; and `C[C@@H](NC(=O)[C@@H]1C[C@@H](F)CN1C(=O)Cn1nc(C(N)=O)c2ccccc21)[C@H]1CC1(Cl)Cl` [Example 58, 1-(2-{(2S,4R)-2-[(R)-1-((R)-2,2-Dichloro-cyclopropyl)-ethylcarbamoyl]-4-fluoro-pyrrolidin-1-yl}-2-oxo-ethyl)-1H-indazole-3-carboxylic acid amide], with 39 nM.

Take `CO[C@H]1[C@@H](C(=O)N[C@H](C)[C@H]2CC2(Cl)Cl)N(C(=O)Cn2nc(C(N)=O)c3ccccc32)C[C@@H]1F` [Example 59, 1-(2-{(2S,3S,4S)-2-[(R)-1-((R)-2,2-Dichloro-cyclopropyl)-ethylcarbamoyl]-4-fluoro-3-methoxy-pyrrolidin-1-yl}-2-oxo-ethyl)-1H-indazole-3-carboxylic acid amide]: the half-inhibitory concentration (IC50) worked out at 14 nM. Then `C[C@@]1(F)C[C@@H](C(=O)NC[C@H]2CC2(Cl)Cl)N(C(=O)Cn2nc(C(N)=O)c3ccccc32)C1` [Example 60, 1-(2-{(2S,4R)-2-[((R)-2,2-Dichloro-cyclopropylmethyl)-carbamoyl]-4-fluoro-4-methyl-pyrrolidin-1-yl}-2-oxo-ethyl)-1H-indazole-3-carboxylic acid amide], with 124 nM; and `CC(=O)c1nn(CC(=O)N2[C@@H]3C[C@@H]3C[C@H]2C(=O)N[C@H](C)[C@H]2CC2(Cl)Cl)c2ccc(OCc3ncn(C)n3)cc12` [Example 61, (1R,3S,5R)-2-{2-[3-Acetyl-5-(1-methyl-1H-[1,2,4]triazol-3-ylmethoxy)-indazol-1-yl]-acetyl}-2-aza-bicyclo[3.1.0]hexane-3-carboxylic acid [(R)-1-((R)-2,2-dichloro-cyclopropyl)-ethyl]-amide], with 3 nM. With `CC(=O)c1nn(CC(=O)N2[C@@H]3C[C@@H]3C[C@H]2C(=O)NCC2CC(F)(F)C2)c2ccc(OCc3ncccn3)cc12` [Example 62, (1R,3S,5R)-2-{2-[3-Acetyl-5-(pyrimidin-2-ylmethoxy)-indazol-1-yl]-acetyl}-2-aza-bicyclo[3.1.0] hexane-3-carboxylic acid (3,3-difluoro-cyclobutylmethyl)-amide], the IC50 was 162 nM. The value for `CC(=O)c1nn(CC(=O)N2[C@@H]3C[C@@H]3C[C@H]2C(=O)N[C@H](C)[C@H]2CC2(Cl)Cl)c2ccc(OCc3cc(C)[nH]n3)cc12` [Example 64, (1R,3S,5R)-2-{2-[3-Acetyl-5-(5-methyl-1H-pyrazol-3-ylmethoxy)-indazol-1-yl]-acetyl}-2-aza-bicyclo[3.1.0]hexane-3-carboxylic acid [(R)-1-((R)-2,2-dichloro-cyclopropyl)-ethyl]-amide] was 3 nM; that for `CC(=O)c1nn(CC(=O)N2[C@@H]3C[C@@H]3C[C@H]2C(=O)N[C@H](C)[C@H]2CC2(Cl)Cl)c2ccc(OCc3ccn(C)n3)cc12` [Example 66, (1R,3S,5R)-2-{2-[3-Acetyl-5-(1-methyl-1H-pyrazol-3-ylmethoxy)-indazol-1-yl]-acetyl}-2-aza-bicyclo[3.1.0]hexane-3-carboxylic acid [(R)-1-((R)-2,2-dichloro-cyclopropyl)-ethyl]-amide] was 4 nM.

For the origin of these results see patent publication US9468661B2, “Pyrrolidine derivatives and their use as complement pathway modulators” (priority 2012, dated 2016).
